Values of other authors, collected in patent US8759098B2, “Method for cloning pluripotent stem cells” (Boston Biomedical Research Institute, Inc., priority 2009, dated 2014).

Tested on: human adult tissue
Conditions: used singly and in combination; Lin et al. 2009; cited from earlier work

Structure (SMILES) | efficiency of creating stem cells from human adult tissue
O=C(NOC[C@H](O)CO)c1ccc(F)c(F)c1Nc1ccc(I)cc1F [PD0325901] | dramatically improve the efficiency
NC(=O)c1ccc(-c2nc(-c3ccccn3)c(-c3ccc4c(c3)OCO4)[nH]2)cc1 [SB43142] | dramatically improve the efficiency
